In ChEMBL document CHEMBL1201862, “PubChem BioAssay data set” (2004):
Active and inactive are the calls of the source.

Experiments:
Protein RecA = target: T1, Protein RecA (Mycobacterium tuberculosis, UniProt P9WHJ3); assay: Fluorescence Cell-Free Homogeneous Dose Retest to Identify Inhibitors of RecA-Intein Splicing Activity. [Related pubchem assays (depositor defined):AID2097, AID2223, AID489010, AID492950]; format: functional
T1 sequence (P9WHJ3 whole entry): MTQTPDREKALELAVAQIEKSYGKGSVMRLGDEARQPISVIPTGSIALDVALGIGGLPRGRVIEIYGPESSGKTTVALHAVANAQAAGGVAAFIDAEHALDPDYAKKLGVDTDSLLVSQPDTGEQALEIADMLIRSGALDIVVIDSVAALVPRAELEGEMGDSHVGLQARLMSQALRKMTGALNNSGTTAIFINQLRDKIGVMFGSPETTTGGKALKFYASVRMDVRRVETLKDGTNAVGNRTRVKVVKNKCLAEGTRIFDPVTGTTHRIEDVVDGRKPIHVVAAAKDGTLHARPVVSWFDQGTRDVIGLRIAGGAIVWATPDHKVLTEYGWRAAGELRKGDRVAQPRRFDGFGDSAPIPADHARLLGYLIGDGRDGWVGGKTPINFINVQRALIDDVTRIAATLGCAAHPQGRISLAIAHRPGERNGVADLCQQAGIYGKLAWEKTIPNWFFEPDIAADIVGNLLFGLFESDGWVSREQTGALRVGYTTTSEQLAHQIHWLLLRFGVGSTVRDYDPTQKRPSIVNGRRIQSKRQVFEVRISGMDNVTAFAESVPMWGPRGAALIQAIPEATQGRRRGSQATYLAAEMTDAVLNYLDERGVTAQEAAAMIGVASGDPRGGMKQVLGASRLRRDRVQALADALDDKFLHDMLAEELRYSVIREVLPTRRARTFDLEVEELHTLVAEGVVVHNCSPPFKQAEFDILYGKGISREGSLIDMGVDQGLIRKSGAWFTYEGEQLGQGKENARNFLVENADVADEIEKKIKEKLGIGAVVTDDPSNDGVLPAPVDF

[1] = target: Glucose-6-phosphate 1-dehydrogenase (Homo sapiens, UniProt P11413); assay: inhibition of Homo sapiens G6PD, dose series – biochemical, fluorescence, selectivity assay for P. falciparum G6PD inhibitor project, dose response (AID 504792); format: functional
Chain of Glucose-6-phosphate 1-dehydrogenase (P11413 whole entry): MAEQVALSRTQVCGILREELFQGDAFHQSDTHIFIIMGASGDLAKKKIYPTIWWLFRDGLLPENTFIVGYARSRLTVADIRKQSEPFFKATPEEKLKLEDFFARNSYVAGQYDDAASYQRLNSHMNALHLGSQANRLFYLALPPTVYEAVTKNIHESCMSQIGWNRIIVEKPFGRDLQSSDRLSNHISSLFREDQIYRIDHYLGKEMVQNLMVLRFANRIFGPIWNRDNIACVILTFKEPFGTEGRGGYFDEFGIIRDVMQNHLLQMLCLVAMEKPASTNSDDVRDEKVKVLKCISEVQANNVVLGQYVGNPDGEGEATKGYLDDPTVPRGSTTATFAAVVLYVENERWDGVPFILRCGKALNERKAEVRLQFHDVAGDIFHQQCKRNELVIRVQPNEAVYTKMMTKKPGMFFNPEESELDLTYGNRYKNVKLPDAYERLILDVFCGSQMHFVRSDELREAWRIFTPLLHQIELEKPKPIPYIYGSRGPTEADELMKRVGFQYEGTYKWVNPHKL

Vero = assay: cells; format: functional; settings: Chlorocebus sabaeus
[2] = viability of HCT116 lacking mutant beta-catenin – cell-based, human colon tumor, dose response (AID 1045); format: functional;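 note: HCT116 colon tumor cells with beta catenin knocked out; cells exposed to compound for 60 hours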
[3] = viability of PTEN-deleted HCT116 cells – cell-based, HCT116 PTEN knockout, dose response (AID 1047); format: functional;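 note: HCT116 colon tumor cells with PTEN knocked out; cells exposed to compound for 60 hours before readout; potency for loss of cell viability measured by luminescence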
Aminopeptidase N = target: T2, Aminopeptidase N (Plasmodium falciparum FcB1/Columbia, UniProt O96935); assay: malaria alanyl aminopeptidase activity blockers – biochemical, fluorogenic H-Leu-NHMec substrate, 1536-well (AID 1445); parameters: species or system Plasmodium falciparum 3D7, 3D7
T2 sequence (O96935 whole entry): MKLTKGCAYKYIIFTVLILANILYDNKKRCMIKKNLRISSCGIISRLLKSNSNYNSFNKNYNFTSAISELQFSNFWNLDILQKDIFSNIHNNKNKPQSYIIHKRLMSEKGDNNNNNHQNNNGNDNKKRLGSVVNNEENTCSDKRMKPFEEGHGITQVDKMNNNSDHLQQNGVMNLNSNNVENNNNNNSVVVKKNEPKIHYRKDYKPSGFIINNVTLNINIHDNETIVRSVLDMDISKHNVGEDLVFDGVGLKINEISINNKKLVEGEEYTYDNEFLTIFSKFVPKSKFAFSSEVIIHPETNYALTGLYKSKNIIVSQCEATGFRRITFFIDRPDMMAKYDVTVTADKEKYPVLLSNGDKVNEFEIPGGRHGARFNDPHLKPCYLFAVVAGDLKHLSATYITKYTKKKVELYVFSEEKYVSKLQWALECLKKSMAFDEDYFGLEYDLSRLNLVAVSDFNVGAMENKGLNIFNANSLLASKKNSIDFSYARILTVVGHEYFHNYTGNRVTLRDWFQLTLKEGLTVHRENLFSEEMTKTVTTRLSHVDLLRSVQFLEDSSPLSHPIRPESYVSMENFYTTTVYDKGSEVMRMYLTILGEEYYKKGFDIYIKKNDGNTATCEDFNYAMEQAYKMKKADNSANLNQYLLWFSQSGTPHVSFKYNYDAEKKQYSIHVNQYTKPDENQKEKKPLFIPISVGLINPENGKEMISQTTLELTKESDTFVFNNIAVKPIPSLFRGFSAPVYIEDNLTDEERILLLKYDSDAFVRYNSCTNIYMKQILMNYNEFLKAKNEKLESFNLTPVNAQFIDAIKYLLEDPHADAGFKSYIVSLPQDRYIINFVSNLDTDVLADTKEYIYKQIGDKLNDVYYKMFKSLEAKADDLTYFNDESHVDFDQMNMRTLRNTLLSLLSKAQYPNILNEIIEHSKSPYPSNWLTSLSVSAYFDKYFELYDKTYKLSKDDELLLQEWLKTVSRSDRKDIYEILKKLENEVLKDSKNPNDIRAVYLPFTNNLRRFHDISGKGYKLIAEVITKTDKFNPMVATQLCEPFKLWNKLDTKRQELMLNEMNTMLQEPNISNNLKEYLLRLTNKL

[4] = target: T3, Corticotropin-releasing factor receptor 2/Corticotropin-releasing factor-binding protein (Homo sapiens, UniProt P24387+Q13324); assay: activators of CRF receptor 2 with binding protein – uHTS hits, confirmation (AID 602473); format: functional; settings: read-out: EC50_Mean
T3 sequence (Q13324 whole entry): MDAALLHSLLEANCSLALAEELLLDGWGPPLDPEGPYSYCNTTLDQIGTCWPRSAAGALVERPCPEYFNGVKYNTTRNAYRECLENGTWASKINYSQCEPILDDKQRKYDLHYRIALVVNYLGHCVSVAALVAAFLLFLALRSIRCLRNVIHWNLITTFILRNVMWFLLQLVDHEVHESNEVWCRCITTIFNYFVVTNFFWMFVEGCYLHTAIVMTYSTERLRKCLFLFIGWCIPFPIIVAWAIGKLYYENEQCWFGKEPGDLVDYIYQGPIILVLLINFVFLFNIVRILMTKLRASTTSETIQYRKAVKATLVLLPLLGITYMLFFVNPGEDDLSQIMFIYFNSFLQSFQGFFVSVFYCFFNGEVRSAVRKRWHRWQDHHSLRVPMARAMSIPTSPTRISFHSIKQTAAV
T3 sequence (P24387 whole entry): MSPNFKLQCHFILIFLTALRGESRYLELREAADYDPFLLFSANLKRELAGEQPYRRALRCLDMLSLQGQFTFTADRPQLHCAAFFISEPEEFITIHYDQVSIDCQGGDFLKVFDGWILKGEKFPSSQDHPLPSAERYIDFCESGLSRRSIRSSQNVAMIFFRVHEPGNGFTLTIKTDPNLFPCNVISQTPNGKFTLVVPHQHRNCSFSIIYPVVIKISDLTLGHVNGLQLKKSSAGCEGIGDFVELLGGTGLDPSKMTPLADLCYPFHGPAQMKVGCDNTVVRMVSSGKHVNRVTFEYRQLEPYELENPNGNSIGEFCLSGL

[5] = target: T3, Corticotropin-releasing factor receptor 2/Corticotropin-releasing factor-binding protein; assay: Dose Response confirmation of uHTS hits for small molecule antagonists of the CRF-binding protein and CRF-R2 receptor complex.; format: functional; settings: read-out: IC50_Mean
[6] = HEK-293T cell viability reduction – luminescence, B-cell screen hits, cytotoxicity control for BCR NF-kB inhibitor project, dose response (AID 489021); format: functional, cell-based;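 note: HEK-293T cells carrying an NF-kB luciferase reporter; cells exposed to compound for about 14 hours before viability readout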
H9c2 = assay: cells; format: functional, cell-based; settings: Rattus norvegicus, H9c2, Myocardium;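 note: confirmatory concentration-response retest of ultra-high-throughput screening hits for modulation of myocardial damage; cell death induced by hydrogen peroxide oxidative stress; compound pretreatment for 60 min then peroxide exposure for 2 h; potency is for protecting the cells against peroxide damage rather than for killing them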
[7] = target: DNA dC->dU-editing enzyme APOBEC-3G (Homo sapiens, UniProt Q9HC16); assay: Dose Response confirmation of small molecule APOBEC3G DNA Deaminase Inhibitors via a fluorescence-based single-stranded DNA deaminase assay. [Related pubchem assays (depositor defined):AID493012, AID493028]; format: functional
Chain of DNA dC->dU-editing enzyme APOBEC-3G (Q9HC16 whole entry): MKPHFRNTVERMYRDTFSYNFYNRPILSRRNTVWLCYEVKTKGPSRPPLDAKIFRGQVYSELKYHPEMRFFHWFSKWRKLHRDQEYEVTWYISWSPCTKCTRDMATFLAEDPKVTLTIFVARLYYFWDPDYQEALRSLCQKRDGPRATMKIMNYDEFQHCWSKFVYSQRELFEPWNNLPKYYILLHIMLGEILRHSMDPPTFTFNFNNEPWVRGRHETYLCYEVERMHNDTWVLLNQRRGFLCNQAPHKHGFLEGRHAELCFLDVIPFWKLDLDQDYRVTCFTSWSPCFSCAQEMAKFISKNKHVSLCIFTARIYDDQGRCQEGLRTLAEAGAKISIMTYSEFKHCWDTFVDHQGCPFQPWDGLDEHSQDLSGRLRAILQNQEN

HEK293 [8] = assay: cells; format: functional, cell-based; settings: Homo sapiens
[9] = target: Nucleotide-binding oligomerization domain-containing protein 2 (Homo sapiens, UniProt Q9HC29); assay: inhibition of NOD2-driven NF-kB reporter – cell-based, luminescence, uHTS, HEK293 (AID 1566); format: functional
Chain of Nucleotide-binding oligomerization domain-containing protein 2 (Q9HC29 whole entry, the tested form may be a part): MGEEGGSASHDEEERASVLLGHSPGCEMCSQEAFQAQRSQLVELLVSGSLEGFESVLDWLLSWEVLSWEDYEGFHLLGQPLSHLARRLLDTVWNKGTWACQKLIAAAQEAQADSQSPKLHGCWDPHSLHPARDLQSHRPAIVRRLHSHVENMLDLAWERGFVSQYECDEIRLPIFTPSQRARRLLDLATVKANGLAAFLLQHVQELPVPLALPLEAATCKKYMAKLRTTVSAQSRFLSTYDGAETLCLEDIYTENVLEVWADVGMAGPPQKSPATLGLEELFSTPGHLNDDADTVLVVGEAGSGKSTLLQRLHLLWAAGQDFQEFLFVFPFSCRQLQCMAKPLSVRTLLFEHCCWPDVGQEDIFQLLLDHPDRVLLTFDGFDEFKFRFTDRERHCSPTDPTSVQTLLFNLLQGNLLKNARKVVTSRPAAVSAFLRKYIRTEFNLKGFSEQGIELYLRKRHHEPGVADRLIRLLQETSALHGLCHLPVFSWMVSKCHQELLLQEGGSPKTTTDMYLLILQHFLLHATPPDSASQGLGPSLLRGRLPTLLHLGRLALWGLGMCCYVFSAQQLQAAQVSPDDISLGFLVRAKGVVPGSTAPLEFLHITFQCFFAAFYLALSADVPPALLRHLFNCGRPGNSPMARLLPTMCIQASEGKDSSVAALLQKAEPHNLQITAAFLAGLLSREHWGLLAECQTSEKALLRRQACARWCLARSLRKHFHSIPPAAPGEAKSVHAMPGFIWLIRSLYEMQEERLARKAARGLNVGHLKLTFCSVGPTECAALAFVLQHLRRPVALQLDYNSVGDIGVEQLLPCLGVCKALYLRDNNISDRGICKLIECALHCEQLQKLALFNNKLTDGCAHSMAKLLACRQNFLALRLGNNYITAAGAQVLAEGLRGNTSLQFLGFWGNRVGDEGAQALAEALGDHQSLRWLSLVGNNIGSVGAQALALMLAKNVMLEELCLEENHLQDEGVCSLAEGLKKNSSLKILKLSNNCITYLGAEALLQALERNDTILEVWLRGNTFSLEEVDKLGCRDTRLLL

HEK293 [10] = assay: NOD2 signaling inhibitors in MDP-stimulated cells, cell-based, uHTS, luminescence (AID 2001); format: functional; settings: Homo sapiens
HEK293 [11] = assay: inhibition of NOD1-driven NF-kB reporter – cell-based, luminescence, uHTS, primary screen (AID 1578); format: functional; settings: Homo sapiens
HEK293 [12] = assay: cells; format: functional, cell-based; settings: Homo sapiens; remark: listed apart in the source
HEK293 [13] = assay: cells; format: functional, cell-based; settings: Homo sapiens; remark: listed apart in the source
[14] = Trypanosoma cruzi growth suppression in host cells – NIH3T3 host cells, beta-gal luminescence, confirmation (AID 2044); format: functional, cell-based;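 note: intracellular parasites grown in NIH/3T3 mouse fibroblasts as host cells; luminescent beta-galactosidase reporter signal from transgenic T. cruzi replicating inside host cells; inhibitors lower the luminescence signal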
[15] = NIH3T3 cell viability loss – ATP luminescence, mouse fibroblasts, counter-screen, dose response (AID 2010); format: functional, cell-based;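 note: cells exposed to compound for about 90 hours before reading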
Coagulation factor XII = target: T4, Coagulation factor XII (Homo sapiens, UniProt P00748); format: functional;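 note: activated factor XIIa alpha cleaving a fluorogenic AMC peptide substrate; inhibitor potency from loss of enzyme activity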
T4 sequence (P00748 whole entry): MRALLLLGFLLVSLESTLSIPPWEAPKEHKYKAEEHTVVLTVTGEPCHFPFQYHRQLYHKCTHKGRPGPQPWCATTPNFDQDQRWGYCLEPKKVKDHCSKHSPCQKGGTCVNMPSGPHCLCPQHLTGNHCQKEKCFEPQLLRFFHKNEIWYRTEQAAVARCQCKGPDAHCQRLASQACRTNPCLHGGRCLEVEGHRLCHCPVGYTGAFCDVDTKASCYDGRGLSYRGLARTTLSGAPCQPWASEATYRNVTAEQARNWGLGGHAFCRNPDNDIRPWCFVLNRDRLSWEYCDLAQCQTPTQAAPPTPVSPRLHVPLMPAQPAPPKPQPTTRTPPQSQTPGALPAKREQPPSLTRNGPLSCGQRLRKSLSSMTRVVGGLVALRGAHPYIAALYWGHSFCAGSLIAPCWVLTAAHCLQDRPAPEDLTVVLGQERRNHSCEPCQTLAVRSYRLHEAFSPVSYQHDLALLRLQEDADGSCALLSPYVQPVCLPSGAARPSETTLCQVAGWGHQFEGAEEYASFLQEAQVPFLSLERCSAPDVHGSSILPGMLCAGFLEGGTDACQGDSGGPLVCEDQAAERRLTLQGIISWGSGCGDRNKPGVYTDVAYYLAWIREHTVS

cells = format: functional
[16] = reduction of Shn3 3'UTR-driven luciferase in osteoblasts – cell-based, Clone20 osteoblasts, firefly luciferase, cherry-picked, dose response (AID 624132); format: functional;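 note: firefly luciferase luminescence from reporter carrying the Shn3 3'UTR in osteoblasts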

COc1c(O)ccc2c1CN1CCc3cc4c(cc3C1C2)OCO4 (centres undefined)
EC50 (Protein RecA): 14 µM (active) | IC50 [1]: > 80 µM (inactive)

O=C(CCS(=O)(=O)c1ccccc1)Nc1nc2c(s1)COc1ccccc1-2
CC50 (Vero): > 25 µM (active) | EC50 [2]: 14.1 µM (active) | EC50 [3]: 18.7 µM (active)

NS(=O)(=O)c1ccc(CCNC(=O)CCCn2c(SCC(=O)N3CCCC3)nc3ccsc3c2=O)cc1
IC50 (Aminopeptidase N): 97.7 µM (active)

O=C(Nc1nnc(S(=O)(=O)N2CCCCC2)s1)c1ccc(Cl)cc1
EC50 [4]: > 53 µM (inactive) | IC50 [5]: > 47.1 µM (inactive) | IC50 [1]: > 80 µM (inactive)

COc1ccc(-c2nsc(SCC(=O)Nc3cc(C)on3)n2)cc1
IC50 [6]: > 80 µM (inactive)

COC(=O)c1cc(NC(=O)Nc2cc(OC)ccc2OC)cc(C(=O)OC)c1
IC50 (H9c2): 16.3 µM (active) | IC50 [6]: > 80 µM (inactive)

O=C(CNC(=O)c1cccs1)NCC(=O)OCC(=O)c1ccc([N+](=O)[O-])cc1
IC50 [1]: > 80 µM (inactive)

Cn1c(=O)cc(OCCCC(=O)NC2CCCC2)c2ccccc21
IC50 [6]: > 80 µM (inactive)

O=C1CC(Sc2nc[nH]n2)C(=O)N1c1ccccc1 (centres undefined)
IC50 [7]: 55.7 µM (active)

COc1cccc(OCCOc2ccc(/C=C3/SC(=S)NC3=O)cc2)c1
IC50 (HEK293 [8]): > 20 µM (inactive) | EC50 [9]: 9.33 µM (active) | IC50 (HEK293 [10]): 6.67 µM (inactive) | EC50 (HEK293 [11]): 4.27 µM (active) | IC50 (HEK293 [12]): 16.5 µM (active) | IC50 (HEK293 [13]): 6.04 µM (active)

Cc1cc(-c2cc(C(=O)NCc3ccccc3)on2)nc(S(C)(=O)=O)n1
IC50 [6]: > 80 µM (inactive)

COc1c(Cl)cc(Cl)cc1C(=O)Nc1ccc(CN2CCCCC2)cc1
EC50 [14]: 3 µM (active) | CC50 (Vero): > 25 µM (active) | EC50 [15]: > 60 µM (not active)

COc1cc(C(=O)ON=C2C=C(C)C(=O)C(C)=C2)cc(OC)c1OC
IC50 (Coagulation factor XII): 0.533 µM (active) | IC50 (cells): 40.2 µM (active) | IC50 [1]: > 80 µM (inactive)

COC(=O)CCC(=O)Nc1sc(C)c(C)c1C(N)=O
IC50 [7]: 38.2 µM (active)

NC(=O)c1ccc(Oc2ccc3ccc(=O)oc3c2)c([N+](=O)[O-])c1
IC50 (Aminopeptidase N): 42.5 µM (active)

COCCn1c(C)cc(C(=O)CSc2ncnc3sc4c(c23)CCC4)c1C
IC50 (HEK293 [8]): > 20 µM (inactive) | EC50 [9]: 8.39 µM (active) | IC50 (HEK293 [10]): 18.6 µM (inactive) | EC50 (HEK293 [11]): 10.7 µM (active) | IC50 (HEK293 [12]): 19.4 µM (active) | IC50 (HEK293 [13]): 15 µM (active)

O=C(CSc1nc2ccsc2c(=O)n1NC(=O)c1ccccc1)Nc1nccs1
IC50 (Aminopeptidase N): 37.4 µM (active)

O=C(CNC(=O)c1ccc(Br)cc1)NCC(=O)OCC(=O)c1ccc([N+](=O)[O-])cc1
IC50 [1]: > 80 µM (inactive)

O=C(Oc1ccc(F)cc1)c1ccc2c(=O)n3c(nc2c1)CCC3
IC50 (cells): 3.88 µM (active)

Cc1cccc(NC(=O)COC(=O)CCc2c[nH]c3ccccc23)c1C
IC50 (cells): 2.82 µM (active)

CCOC(=O)c1c(C)[nH]c(C(=O)COC(=O)[C@H](C)N2C(=O)C3CCCCC3C2=O)c1C (some centres undefined)
AC50 [16]: 46.8 µM (active)

O=S(=O)(c1ccc(NC(=S)NC23CC4CC(CC(C4)C2)C3)cc1)N1CCCCC1
CC50 (Vero): 8.76 µM (active)

CCOCCCn1/c(=N/C(=O)c2cccnc2)c(C(=O)OCC)cc2c(=O)n3ccccc3nc21
IC50 [7]: 41.3 µM (active)

O=C(Oc1cccc(/C=N/Nc2nc(N3CCOCC3)nc(N3CCOCC3)n2)c1)c1ccco1
IC50 [6]: > 80 µM (inactive)
